This is an account of results in patent publication US6103709A (priority 1998, dated 2000).

The test system of experiment [1] is vitamin D-deficient chick. As to the kind of experiment: Intestinal Ca2+ absorption (ICA) in vitamin D-deficient chick. The conditions noted are these: i.m. It counts as in vivo. The procedure:
A primary fundamental physiological property of vitamin D and particularly 1α,25(OH)2 D3 is its ability to stimulate the intestinal absorption of calcium and facilitate the availability of dietary calcium to the organism. Intestinal absorption of the calcium is measured by the intestinal calcium absorption (ICA) assay, developed in the model of vitamin-D deficient chicks. The ICA assay was used to determine the relative capability of the tested analog to stimulate intestinal Ca^2+ absorption.
(§1) Results of the testing of the analogs of the invention in vivo by the ICA and IBM assays are shown in FIG. 9 which illustrates the capability of analogs LO, EV and HR to stimulate intestinal Ca^2+ absorption (ICA) and bone Ca^2+ mobilizing activity (BCM). In this study, the analogs of 1α,25(OH) were given i.m. to vitamin D-deficient chicks 12 hours before the assay began. The activity produced by 100 pmol of 1α,25(OH)2 D3 was set to be 100% for both ICA and BCM. The dose of the analogs required to achieve a biological response for either ICA or BCM equivalent to the 100 pmol dose of 1α,25(OH)2 D3 was calculated and converted to a percentage. Results are expressed as mean +SE of groups of seven chicks. Each assay included a negative control (-D), that is no vitamin D was present, and a positive control, where vitamin D3 (+D3) was present in 3.25 nmol. […] 1α,25(OH)2 D3 and analogs LO [14α,15α-methano-1α,25(OH)2 D3 ], EV [22-(m(dimethylhydroxymethyl)phenyl)-23,24,25,26,27-pentanor-1α-OH-D3 ] and HR [(22R)-1,25(OH)2 -22,23-diene-D3 ] were administered in 0.0065, 0.065, 0.65 and 6.5 nmol as shown.
(§2) In Vivo Assays of Intestinal Calcium Absorption and Bone Calcium Mobilization
(§3) This example describes assays used for determination of analogs biological activity in intestinal calcium absorption (ICA) and bone calcium mobilization (BCM) assays.
(§4) ICA and BCM were measured in vivo in the vitamin D-deficient chick model system according to Biochem. Pharmacol., 18: 2347 (1969).
(§5) Twelve hours before assay, the chickens, which had been placed on a zero-calcium diet 48 h before assay, were injected intramuscularly with the vitamin metabolite 1α,25(OH)2 D3 or analog (1-10,000 pmoles) dissolved in 0.1 mL of ethanol/1,2-propanediol (1:1, v/v). At the time of assay, 4.0 mg of ^40 Ca^2+ +5 μCi of ^45 Ca^2+ (New England Nuclear) were placed in the duodenum of the birds lightly anesthetized with ether. After 30 min, the birds were decapitated and the blood was collected.
The radioactivity content, which is a measure of ICA, of 0.2 mL of serum was measured in a liquid scintillation counter (Beckman LS8000) to determine the amount of ^45 Ca^2+ absorbed.

Experiment [2] deals with vitamin D-deficient chick. As to the kind of experiment: Bone Ca2+ mobilizing activity (BCM) in vitamin D-deficient chick. The note with it: i.m. It counts as in vivo. Here is the method: The bone calcium mobilizing (BCM) assay is also conducted in the vitamin D-deficient chick. The BCM assay determines the relative ability of the tested analog to mobilize bone calcium. The natural hormone 1α,25(OH)2 D3 is very potent in the BCM assay. For example, when 1α,25(OH)2 D3 in inappropriate amounts are used as a drug in human patients, the patient may become hypercalcemic and eventually hypercalciuria with nephrolithiasis and renal failure may develop. The BCM assay was used to determine the relative activity of the analogs of the invention to stimulate bone Ca^2+ mobilization.
as §1, §2, §3, §4, §5
BCM activity was estimated from the increase of total serum calcium concentration, as determined by atomic absorption spectrophotometry.

Experiment [3] has as its system MAP-kinase p42^mapk in NB4 cells. As to the kind of experiment: MAP-kinase activation (p42mapk phosphorylation) in NB4 cells. It counts as cell-based, human. The note with it: 1 or 5 minutes exposure. The procedure:
In order to determine whether MAP-kinase phosphorylation is specific and is altered by 1α,25(OH)2 D3, the time-dependent effects of 1α,25(OH)2 D3 on p42^mapk phosphorylation was examined using human acute promyelocytic leukemia cells (NB4). In this study, the NB4 cells, cultured in 10% charcoal-stripped fetal calf serum (FCS) medium, were treated with 1α,25(OH)2 D3 at 10^-8 M for various time periods. Cells were then extracted and the phosphorylated MAP-kinase was immunoprecipitated with anti-phosphotyrosine antibody and further analyzed by Western blot using the antibodies against p42^mapk.
The lysate was further processed for anti-phosphotyrosine immunoprecipitation. […] After transferring the proteins to the PVDF membrane, the membrane was further incubated with primary anti-p42^mapk antibodies that were (+) or were not (-) pre-exposed to MAP-kinase peptide.
This example describes assays used for measurement of MAP-kinase activity in NB4 cells.
Cell culture of NB4 cells
The cell line is characterized by a translocation involving chromosomes 15 and 17, which is typical of the classical form of APL-M3 in the French-American-British [FAB] classification. NB4 cells were cultured in DMEM/F12 medium with 10% FCS at 5% CO2 balanced air and were routinely passaged as suspension cultures and only passages 8 to 20 were used for each assay.
Immunoprecipitation of Tyrosine-Phosphorylated Proteins
NB4 cells were cultured in 60-mm diameter dishes and treated with 1,25(OH)2 D3 or analogs in 4 ml of DMEM/F12 containing 10% charcoal-stripped FCS.
Insoluble material was removed in a microcentrifuge at 14,000 rpm for 10 min. Protein concentration was determined with a protein assay kit (Bio-Rad Lab, Hercules, Calif.). For immunoprecipitation, the supernatant was incubated with bead-conjugated monoclonal anti-phosphotyrosine antibody overnight at 4° C. The immunoprecipitates containing the tyrosine-phosphorylated proteins were washed four times with freshly-prepared RIPA buffer and further eluted with 2× Laemmli gel buffer.
At this point, the samples were either stored at -20° C. for further use or processed via Western blots. Equal loading of MAP-kinase protein was determined by running the Western blots using polyclonal anti-p42^mapk antibody. For this purpose, samples were aliquoted from each cell extract before immunoprecipitation.
SDS Gel Electrophoresis and Western blot
The membrane was further immunoblotted using a rabbit anti-p42^mapk polyclonal antibody overnight at 4° C. followed by incubation with secondary horseradish peroxidase-conjugated mouse anti-rabbit antibody for 1 hr at 25° C. The phosphorylated MAP-kinase bands were then visualized by enhanced chemiluminescence (ECL). A Ultrascan LX Laser Densitometer (LKB, Bromma, Sweden) scanned the density of the immuno-phosphoprotein bands. The results were normalized by protein loading and further plotted as percent of control of the band density.

The subject of experiment [4] is chloride channels in ROS 17/2.8 cells. The procedure:
In each case, at least a 3-min period was allowed after the addition of the analog to the bath for currents to reach a stable amplitude value. […] Anion currents were isolated from inward Ba^2+ currents after blockade of Ca^2+ channels with 100 μM Cd^2+.

The next experiment has as its system VDRnuc. As to the kind of experiment: Genomic response (summary classification). The note with it: Yes/No, Tables 1 and 6. The text has this: (§6) Table 6 identifies biological properties, such as genomic response, rapid response, agonist or antagonist function, binding of the analog to the vitamin binding protein (expressed as RCI), binding to the nuclear 1α,25(OH)2 D3 receptor (expressed as RCI) rapid response (expressed as % transcaltachia the rapid hormonal stimulation of intestinal calcium absorption) the classic vitamin D responses such as intestinal Ca^2+ absorption (ICA) and bone Ca^2+ mobilizing activity (BCM) determined in vivo in a vitamin D-deficient chick, and cell differentiation (expressed as % ED50), an assessment of the ability to promote the nuclear response of cell differentiation.

The next experiment relates to VDRmem. As to the kind of experiment: Rapid response (summary classification). The conditions noted are these: Yes/No, Tables 1 and 6.
Description: as §6

Another experiment has as its system rapid responses (VDRmem). As to the kind of experiment: Antagonist function (summary classification). The conditions noted are these: Yes/No, Tables 1 and 6.
Description: as §6

The subject of another experiment is keratinocytes. The conditions noted are these: cell cultures of keratinocytes; cited from earlier work.
Experiment [5] concerns the target T1, nuclear receptor for 1α,25(OH)2 D3 [VDRnuc] (Gallus gallus, UniProt O42392).
T1 construct: VDRnuc receptor preparation from chick intestine mucosa; from tissue; host or cells: chick intestinal mucosa
T1 sequence (O42392 1-451): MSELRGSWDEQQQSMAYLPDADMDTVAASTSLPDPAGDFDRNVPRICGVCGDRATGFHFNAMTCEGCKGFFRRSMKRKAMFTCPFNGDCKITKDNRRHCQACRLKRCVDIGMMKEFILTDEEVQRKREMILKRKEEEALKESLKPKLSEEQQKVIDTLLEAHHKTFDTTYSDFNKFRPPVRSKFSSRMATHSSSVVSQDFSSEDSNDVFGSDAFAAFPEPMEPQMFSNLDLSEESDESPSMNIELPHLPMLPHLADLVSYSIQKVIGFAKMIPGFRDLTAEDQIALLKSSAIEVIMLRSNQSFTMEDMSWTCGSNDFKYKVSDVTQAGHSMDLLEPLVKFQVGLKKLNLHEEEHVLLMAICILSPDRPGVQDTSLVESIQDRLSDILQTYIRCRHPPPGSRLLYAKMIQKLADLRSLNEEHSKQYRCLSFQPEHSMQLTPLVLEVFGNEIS
As to the kind of experiment: Relative Competitive Index (steroid competition) assay, nuclear receptor VDRnuc. It counts as binding, chick. Also noted: key to Nuclear 1α,25-D Receptor (RCI): % relative to 1α,25(OH)2D3 binding (RCI = 100%). The procedure: The ability of analogs to mediate genomic responses are directly determined by the ability of the analog in question to bind to the nuclear receptor for 1α,25(OH)2 D3 [VDRnuc ]. This ability is detected by the assay measuring Relative Competitive Index (RCI).
The assay is based upon the principles of a steroid competition assay. A fixed amount of [^3 H]1α,25(OH)2 D3 is mixed with increasing amounts of competitive analogs or the natural hormone, 1α,25(OH)2 D3, and incubated with a VDRnuc receptor preparation from chick intestine mucosa.
Ligand Receptor Competition Assay
This example describes a ligand receptor competitive assay used for determination of an analog's relative ability to bind to VDRnuc expressed as relative competitive index (RCI).
The relative affinity of nonradioactive 1α,25(OH)2 D3 and each analog to compete with [^3 H]1α,25(OH)2 D3 for binding to the VDRnuc of NB4 cells was carried out in vitro. The NB4 cells were collected from a fast growing stage and the cellular VDRnuc of 1α,25(OH)2 D3 were extracted from KTED buffer containing 10 mM Tris-HCl, pH 7.4, 300 mM KCl, 1 mM EDTA and 5 mM DTT. After sonication, the cell extract was further centrifuged at 500× g for 10 min. The supernatant was collected for use in a ligand-receptor binding assay.
In this assay, increasing concentrations (10^-10 to 10^-6 M) of nonradioactive 1α,25(OH)2 D3 or the tested analogs were incubated with NB4 cell extracts in the presence of a fixed saturating amount of 1 pmole of [^3 H]1α,25(OH)2 D3. The reciprocal of the percentage of maximal binding of [^3 H]1α,25(OH)2 D3 was then calculated and plotted as a function of the relative analog concentration versus [^3 H]1α,25(OH)2 D3. […] The competitive index value for each analog is then normalized to the competitive index value of the […], thereby generating the value of Relative Competitive Index (RCI) where the RCI for 1α,25(OH)2 D3 is defined as 100%.
The full description of the assay is found in Methods in Enzymology: Vitamins and Co-Enzymes, Vol. 67, 494-500 , Academic Press, NY(1980); Biochem. Biophys. Res. Commun., 91: 827-834 (1979); and Endocrinology, 139(2): 457-465 (1998).

A further experiment relates to HL-60 cells. As to the kind of experiment: Cell differentiation assay (NBT reduction). It counts as cell-based.
Setting [6] is: relative to 100 pmol 1α,25(OH)2 D3 = 100%, 12 h before assay.

Entries after “also recorded” stand apart in the source; their conditions may differ.

Description for HL-60 cells: The cell differentiation assay is used for a determination of relative potency of the analog vis-a-vis the potency of the reference compound 1α,25(OH)2 D3 in promoting the cell differentiation or inhibiting the cell proliferation. The results of the cell differentiation assay are expressed as the effective dose-50 (ED-50) which is defined as 50% of the concentration required for a maximal response.
Cell Differentiation Assay
After 4 days of culture in a humidified atmosphere of 5% CO2 in air at 37° C., the dishes were shaken to loosen any adherent cells. All cells were then assayed for differentiation by NBT reduction assay and for proliferation by [^3 H]thymidine incorporation.
Superoxide production was assayed by nitro blue tetrazolium-reducing activity as follows.
The percentage of cells containing black formazan deposits was determined using a hemacytometer.

With `C=C1/C(=C\C=C2/CCC[C@]3(C)[C@@H]([C@H](C)CCCC(C)(C)O)CC[C@@H]23)C[C@@H](O)C[C@@H]1O` [Analog C, 1α,25-dihydroxyvitamin D3, reference compound], in experiment [1] (setting [6]), the “Classic Vit D Responses ICA” value worked out at 100%. In addition, the “ICA (in words)” value in experiment [1] (vitamin D-deficient chick) was “most potent stimulator of ICA and BCM”. Further, the “Classic Vit D Responses BCM” value in experiment [2] (setting [6]) came out at 100%. For the same compound, the “BCM (in words)” value in [2] (vitamin D-deficient chick) was “most potent stimulator of ICA and BCM”. The “phosphorylation / activation of MAP-kinase p42mapk (in words)” value in experiment [3] is “significantly increased phosphorylation of p42^mapk in NB4 cells”. Also, the “opening of chloride channels (in words)” value in experiment [4] (0.05-50 nM, alone, listed as 1α,25(OH)2 D3) is reported as “concentration-dependent effect on the promotion of anion currents; also recorded: agonist which opens chloride channels”. Besides, the “cells responding with promotion of anion currents” value in experiment [4] (1α,25(OH)2 D3 alone, 14 out of 15 cells) amounted to 93%. In the experiment with VDRnuc, the “Genomic Response” value is on record as “Yes”. The “Rapid Response” value with VDRmem was “Yes”. The Antagonist entry in the experiment on rapid responses (VDRmem) is “No”. Also, the “production of keratin, involucrin and loricrin” value in the experiment with keratinocytes is “stimulate the production of keratin, involucrin and loricrin”.

In the case of `C=C1/C(=C\C=C2/CCC[C@]3(CO)[C@@H]([C@H](C)CCCC(C)(C)O)CC[C@@H]23)C[C@@H](O)C[C@@H]1O` [HS], the “Binding to VDRnuc relative to 1α,25(OH)2 D3 (RCI)” value in experiment [5] (1α,25(OH)2 D3 = 100%, FIG. 8: chick intestine mucosa) is reported as 25%. Also, the “Nuclear 1α,25-D Receptor (RCI)” value in experiment [5] (RCI of 1α,25(OH)2 D3 = 100) is 25. In addition, in the experiment with HL-60 cells, the “potency at promoting cell differentiation versus 1α,25(OH)2 D3” value is given as “about twenty times more potent”. Besides, the “Genomic Response” value in the experiment with VDRnuc is on record as “Yes”. For the same compound, the “Rapid Response” value in the experiment with VDRmem was “Yes”. The Antagonist entry in the experiment with rapid responses (VDRmem) is given as “No”.
